Experimental data reported in US8486899B2, “Antioxidant” (Morinaga Milk Industry Co., Ltd., priority 2008, dated 2013).

Key:
ApoE gene-deficient mice [1] = assay: Number of atherosclerotic lesions (plaques) in thoracic aorta of ApoE gene-deficient mice; type: in vivo; details: oral once a day for 39 consecutive days; for Number of plaques formed in thoracic aorta: ApoE gene-deficient mice on high-cholesterol diet, 1 ml of 30 μg/ml per 25 g body weight, Oil red staining 40 days after start; for Effect on plaque formation (in words, versus negative sample): ApoE gene-deficient mice
Procedure: In addition, it is generally known that a primary lesion of arteriosclerosis is caused by oxidized LDL. Therefore, it is also possible to evaluate the action of reducing a risk of arteriosclerosis through inhibiting formation of a lipid peroxide of the test sample by counting the number of atherosclerotic lesions (plaques) in the artery of each model mouse treated with the test sample.
In Example 2, 3-O-β-D-glucopyranosyl-4-methylergost-7-en-3-ol was evaluated on the effect of reducing a risk of arteriosclerosis through the effect of inhibiting a lipid peroxide by counting the number of atherosclerotic lesions (plaques) in the artery using known arteriosclerosis model animals, ApoE gene-deficient mice.
A test sample, a control sample, and a negative sample were prepared in the same way as in Example 1 above and were each used for a test.
(§1) Six-week-old male ApoE gene-deficient mice (purchased from Japan SLC, Inc.) were preliminarily fed with a high-cholesterol diet (manufactured by Research Diets, Inc.) for 2 weeks and divided into groups each of 15 mice.
Each of the sample solutions including the test sample, control sample, and negative sample was separately administered orally once a day for 39 consecutive days using medical probes in an amount of 1 ml per 25 g of mouse body weight. Forty days after the start of administration, the thoracic aorta part was fixed with formalin and stained with Oil red, and the number of plaques was counted.
The test results of this example are shown in Tale 2.

ApoE gene-deficient mice [2] = type: in vivo; details: for Amount of lipid peroxide in blood (MDA concentration (μM)): ApoE gene-deficient mice on high-cholesterol diet, oral, once a day, 30 μg per day, serum 14 days after start of administration, TBARS assay kit; for Effect of inhibiting formation of a lipid peroxide in blood (in words, versus negative sample): ApoE gene-deficient mice, oral 30 μg per day, 14 days after start of administration
Excerpt: The actions of inhibiting formation of a lipid peroxide of various test samples including the antioxidant of the present invention can be evaluated by using, as an index, the amount of a thiobarbituric acid (TBA) reactive substance (TBARS), for example. Specifically, it may be defined that the larger the amount of the TBARS, the larger the amount of a lipid peroxide formed.
Examples of the TBARS include malondialdehyde (MDA) which reacts with TBA under high-temperature and acidic conditions and is a natural by-product of a lipid peroxidation. An MDA-TBA adduct can be detected by measurement of an absorbance at 530 to 540 nm to perform colorimetric measurement of MDA.
Also, the action of inhibiting formation of a lipid peroxide of a test sample can be evaluated using ApoE gene-deficient mice, which are often used as model animals which develop arteriosclerosis by hypercholesterolemia (hyper-LDL-cholesterolemia) (for example, see Reference Document 1: “Saibokogaku (Cell Engineering),” Extra Issue, “Medical Experiment Manual” series, Strategy for Study of Arteriosclerosis+Hyperlipidemia, Shujunsha Co., 1st edition, 1st impression, published on Apr. 1, 1996, pp. 441-443).
Further, in the model mice, the lipid peroxide level is higher than that of normal mice, and formation of atherosclerotic lesions (plagues) in the artery is observed with time. Therefore, the action of inhibiting formation of a lipid peroxide of a test sample can be evaluated by administering the test sample to the model mice and measuring a lipid peroxide in blood of the model mice.
Model animals which develop arteriosclerosis, ApoE gene-deficient mice, were used to examine the action of inhibiting formation of a lipid peroxide of 3-O-β-D-glucopyranosyl-4-methylergost-7-en-3-ol.
3-O-β-D-glucopyranosyl-4-methylergost-7-en-3-ol manufactured in Production Example 1 above was used as a test sample, and Mevalotin (DAIICHI SANKYO COMPANY, LIMITED), which is an HMG-CoA reductase inhibitor, was used as a control sample.
Those samples were separately dissolved in physiological saline so that the concentration of each compound was 30 μg/ml and were used for a test. Note that physiological saline was used as a negative sample.
as §1
To mice of each group, the solution including the test sample, control sample, or negative sample was separately administered orally once a day for 3 consecutive days using medical probes in an amount of 1 ml per 25 g of mouse body weight. […] Then, the amount of TBARS was measured using OxiSelect TBARS Assay Kit (manufactured by […]). […]

CC1C(O[C@@H]2O[C@H](CO)[C@@H](O)[C@H](O)[C@H]2O)CC[C@@]2(C)C1CC=C1[C@@H]3CC[C@H]([C@H](C)CC[C@H](C)C(C)C)[C@@]3(C)CC[C@@H]12 (stereo partly drawn) [Test sample, 3-O-β-D-glucopyranosyl-4-methylergost-7-en-3-ol]
Number of plaques formed in thoracic aorta (ApoE gene-deficient mice [1]): 5.8 ± 1.6
Number of plaques formed in thoracic aorta (ApoE gene-deficient mice [1]; listed as test sample): 5.8
Effect on plaque formation (in words, versus negative sample) (ApoE gene-deficient mice [1]): had an effect of inhibiting plaque formation on the arterial endothelium
Amount of lipid peroxide in blood (MDA concentration (μM)) (ApoE gene-deficient mice [2]): 0.51 ± 0.22 µM
Effect of inhibiting formation of a lipid peroxide in blood (in words, versus negative sample) (ApoE gene-deficient mice [2]): the effect of inhibiting formation of a lipid peroxide in blood was clearly confirmed

CC[C@H](C)C(=O)O[C@H]1C[C@H](O)C=C2C=C[C@H](C)[C@H](CC[C@@H](O)C[C@@H](O)CC(=O)[O-])[C@H]21.[Na+] [Control sample, reference compound]
Number of plaques formed in thoracic aorta (ApoE gene-deficient mice [1]): 10.6 ± 3.2
Effect on plaque formation (in words, versus negative sample) (ApoE gene-deficient mice [1]): no significant difference although plaque formation was found to decrease
Amount of lipid peroxide in blood (MDA concentration (μM)) (ApoE gene-deficient mice [2]): 0.93 ± 0.05 µM
Effect of inhibiting formation of a lipid peroxide in blood (in words, versus negative sample) (ApoE gene-deficient mice [2]): a significant decrease in amount of a lipid peroxide in blood was not observed
